19 molecules from ChEMBL document CHEMBL4715883, “Novel BuChE-IDO1 inhibitors from sertaconazole: Virtual screening, chemical optimization and molecular modeling studies” (Bioorg Med Chem Lett, 2021) can be followed below.

Usually inhibition stands for the share of the control response that was lost under treatment. Usually pIC50 stands for the IC50 on a negative log10 scale, so that one unit is a factor of ten. A higher pIC50 goes with a low IC50.

Each structure is given as a SMILES string. pIC50: −log10 of the molar value.

In data set [1] the target is Acetylcholinesterase (Electrophorus electricus) (UniProt O42275). The data set is described as follows: Inhibition of electric eel […] iodide as substrate at 50 uM preincubated for 5 mins followed by substrate addition and measured after 2 mins by Ellman's method relative to control. As to conditions: time 7.0 min.
The target in data set [2] is Cholinesterase (Equus caballus, UniProt P81908). The data set is described as follows: Inhibition of equine serum BuChE using butyrylthiocholine iodide as substrate preincubated for 5 mins followed by substrate addition and measured after 2 mins by Ellman's method. It is filed as cell-free.
The target of data set [3] is Indoleamine 2,3-dioxygenase 1 (Homo sapiens, UniProt P14902). The data set is described as follows: Inhibition of human N-terminal IDO1 expressed in Escherichia coli BL21 A1 cells using L-tryptophan as substrate measured after 30 mins by HPLC analysis.
Data set [4] deals with Acetylcholinesterase (Electrophorus electricus, UniProt O42275). Description: Inhibition of electric eel […] iodide as substrate preincubated for 5 mins followed by substrate addition and measured after 2 mins by Ellman's method. On the technique in general: In Ellman's method for cholinesterases, released thiocholine reacts with DTNB.
The nature of data set [5]: Selectivity index, ratio of IC50 for inhibition of electric eel […] iodide as substrate to IC50 for inhibition of equine serum BuChE using butyrylthiocholine iodide as substrate.
For data set [6], the species on record is Homo sapiens. The data set is described as follows: inhibition of amyloid beta (1 to 42) (unknown origin) aggregation at 50 uM by ThT fluorescence assay relative to control.
Data set [7] can be described thus: Cytotoxicity against human SH-SY5Y cells assessed as reduction in cell viability after 48 hrs by MTT assay. It is filed as cell-based. As to conditions: read-out: LD50. In general terms: Tetrazolium dyes change colour on reduction, which living cells bring about.
The species entered for data set [8] is Homo sapiens. The data set is described as follows: Inhibition of amyloid beta (1 to 42) (unknown origin) aggregation by ThT fluorescence assay. As to conditions: dose 10-50 µM.

Sequence of Acetylcholinesterase (O42275 whole entry): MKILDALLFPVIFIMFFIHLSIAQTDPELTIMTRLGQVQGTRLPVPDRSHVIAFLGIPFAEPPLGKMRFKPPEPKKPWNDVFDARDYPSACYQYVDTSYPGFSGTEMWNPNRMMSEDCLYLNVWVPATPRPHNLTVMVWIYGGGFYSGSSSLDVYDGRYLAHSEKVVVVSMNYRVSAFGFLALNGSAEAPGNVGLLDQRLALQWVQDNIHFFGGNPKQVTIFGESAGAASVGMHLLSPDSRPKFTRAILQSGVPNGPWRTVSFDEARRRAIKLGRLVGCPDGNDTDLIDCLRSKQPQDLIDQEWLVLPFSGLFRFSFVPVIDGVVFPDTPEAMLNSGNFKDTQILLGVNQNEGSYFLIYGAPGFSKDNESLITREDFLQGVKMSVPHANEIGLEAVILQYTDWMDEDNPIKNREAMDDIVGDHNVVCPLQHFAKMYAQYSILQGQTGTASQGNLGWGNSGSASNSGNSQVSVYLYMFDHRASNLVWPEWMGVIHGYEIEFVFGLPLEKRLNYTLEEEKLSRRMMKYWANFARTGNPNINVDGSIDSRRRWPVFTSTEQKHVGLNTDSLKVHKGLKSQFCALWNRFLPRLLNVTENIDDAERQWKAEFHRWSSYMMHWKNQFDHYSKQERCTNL
Sequence of Indoleamine 2,3-dioxygenase 1 (P14902 whole entry): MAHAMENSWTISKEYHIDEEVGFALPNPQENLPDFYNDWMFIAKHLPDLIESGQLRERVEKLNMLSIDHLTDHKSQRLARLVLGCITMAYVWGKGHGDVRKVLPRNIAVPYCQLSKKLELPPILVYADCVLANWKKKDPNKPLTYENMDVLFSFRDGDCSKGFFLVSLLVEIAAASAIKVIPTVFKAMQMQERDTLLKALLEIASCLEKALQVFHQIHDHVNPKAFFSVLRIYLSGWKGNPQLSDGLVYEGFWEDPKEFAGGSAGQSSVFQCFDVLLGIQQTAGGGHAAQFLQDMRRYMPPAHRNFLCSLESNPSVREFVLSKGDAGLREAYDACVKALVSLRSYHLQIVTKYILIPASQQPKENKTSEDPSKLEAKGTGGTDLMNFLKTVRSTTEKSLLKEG
Sequence of Cholinesterase (P81908 whole entry): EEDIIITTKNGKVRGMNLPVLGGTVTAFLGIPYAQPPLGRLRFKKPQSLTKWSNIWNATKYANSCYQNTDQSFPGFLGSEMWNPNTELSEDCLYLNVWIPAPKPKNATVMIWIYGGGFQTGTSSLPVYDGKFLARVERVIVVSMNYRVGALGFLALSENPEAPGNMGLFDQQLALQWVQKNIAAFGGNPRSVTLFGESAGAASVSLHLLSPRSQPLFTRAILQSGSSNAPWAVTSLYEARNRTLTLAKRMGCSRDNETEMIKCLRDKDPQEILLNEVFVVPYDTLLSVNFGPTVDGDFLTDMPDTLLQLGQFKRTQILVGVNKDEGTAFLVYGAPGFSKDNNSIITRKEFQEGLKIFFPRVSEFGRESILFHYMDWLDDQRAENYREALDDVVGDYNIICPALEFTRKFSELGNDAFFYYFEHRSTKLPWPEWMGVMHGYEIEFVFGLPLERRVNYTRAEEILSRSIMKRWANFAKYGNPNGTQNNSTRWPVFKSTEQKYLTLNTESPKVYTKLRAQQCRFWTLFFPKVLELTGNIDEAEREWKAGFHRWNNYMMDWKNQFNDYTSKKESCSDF
Sequence of Acetylcholinesterase (Electrophorus electricus) (O42275 24-633 limits assumed): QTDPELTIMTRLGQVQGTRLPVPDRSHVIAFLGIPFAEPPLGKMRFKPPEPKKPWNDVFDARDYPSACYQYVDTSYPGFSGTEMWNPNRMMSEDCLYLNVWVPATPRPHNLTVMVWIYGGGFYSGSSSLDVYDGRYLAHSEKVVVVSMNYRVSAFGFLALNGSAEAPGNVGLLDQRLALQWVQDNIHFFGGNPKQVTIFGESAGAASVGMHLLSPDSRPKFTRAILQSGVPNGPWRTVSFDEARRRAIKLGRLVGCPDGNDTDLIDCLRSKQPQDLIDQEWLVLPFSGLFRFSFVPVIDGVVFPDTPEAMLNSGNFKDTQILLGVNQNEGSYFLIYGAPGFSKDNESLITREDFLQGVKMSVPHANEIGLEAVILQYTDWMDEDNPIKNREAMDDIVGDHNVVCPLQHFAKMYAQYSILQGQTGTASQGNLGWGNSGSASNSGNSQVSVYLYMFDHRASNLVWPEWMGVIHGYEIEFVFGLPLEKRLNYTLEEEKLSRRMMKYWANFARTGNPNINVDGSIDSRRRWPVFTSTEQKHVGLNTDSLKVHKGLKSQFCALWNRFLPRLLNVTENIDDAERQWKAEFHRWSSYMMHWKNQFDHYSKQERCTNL

In the case of `Fc1cc(C(Cn2ccnc2)OCc2nc3ccccc3s2)ccc1Cl` (stereo not drawn), the inhibition in data set [1] amounted to 22.1%. In addition, the pIC50 was 5.21 in data set [2] and 4.24 in data set [3].

Consider `Clc1ccc(C(Cn2ccnc2)OCc2nc3ccccc3s2)cc1` (stereo not drawn), for which, in data set [1], the inhibition is 17.8%. Besides, the values for the pIC50 in data set [2] and in data set [3] were 5.10 and 4.06, respectively.

The molecule `Fc1ccc(C(Cn2ccnc2)OCc2nc3ccccc3s2)c(F)c1` (stereo not drawn) returned an inhibition in data set [1] of 12.4%. The pIC50 in data set [2] is 5.24; in data set [3] it was 3.88.

Regarding `Clc1ccccc1C(Cn1ccnc1)OCc1nc2ccccc2s1` (stereo not drawn), the negative-log IC50 (pIC50) in data set [4] is 4.23; in data set [2], 4.95; in data set [3], 4.22. The same molecule gave an inhibition in data set [1] of 47.4%.

In the case of `Clc1ccc(COC(Cn2ccnc2)c2ccc(Cl)cc2Cl)c(Cl)c1` (stereo not drawn) [MICONAZOLE], the pIC50 in data set [4] was 5.62; in data set [2], 5.37; in data set [3], 5.54. Further, the Ratio IC50 in data set [5] was 0.6.

In the case of `Clc1ccc(C(Cn2ccnc2)OCc2cc3ccccc3s2)c(Cl)c1` (stereo not drawn), the values for the pIC50 in data set [4], in data set [2] and in data set [3] were 4.81, 5.85 and 4.75, respectively. In addition, in data set [5], the Ratio IC50 is 11.

`Brc1cccc(C(Cn2ccnc2)OCc2nc3ccccc3s2)c1` (stereo not drawn) registered an inhibition in data set [1] of 25.5%. In addition, the figures for the pIC50 in data set [2] and in data set [3] were 4.82 and 5.43, respectively.

`Fc1ccc(C(Cn2ccnc2)OCc2nc3ccccc3s2)cc1F` (stereo not drawn) registered an inhibition in data set [1] of 7.2%. Moreover, the pIC50 is 5.96 in data set [2] and 4.45 in data set [3]. In addition, the Ratio IC50 in data set [5] is above 50.

In turn, `Brc1ccc(C(Cn2ccnc2)OCc2nc3ccccc3s2)cc1` (stereo not drawn) registered an inhibition in data set [1] of 21%. The pIC50 in data set [2] was 5.00; in data set [3], 4.31.

As to `Clc1ccc(C(Cn2ccnc2)OCc2nc3ccccc3s2)c(Cl)c1` (stereo not drawn), the pIC50 in data set [4] is 4.88; in data set [2], 5.41; in data set [3], 5.17. For the same molecule, the inhibition is 52.2% in data set [6] and “Dose-dependent effect” in data set [8]. The CC50 at 48 h in data set [7] was determined as 11.8 µM. The Ratio IC50 in data set [5] came to 3.4.

With `Fc1ccc(C(Cn2ccnc2)OCc2nc3ccccc3s2)cc1` (stereo not drawn), the inhibition in data set [1] turned out to be 11.4%. Further, the pIC50 in data set [2] was 5.41; in data set [3] it was 4.13.

With `Clc1ccc(C(Cn2ccnc2)OCc2csc3c(Cl)cccc23)c(Cl)c1` (stereo not drawn) [SERTACONAZOLE], the pIC50 in data set [2] was 5.13; in data set [3], 5.42.

Turning to `Clc1ccc(C(Cn2ccnc2)OCc2cccc3ccccc23)c(Cl)c1` (stereo not drawn), the figures for the pIC50 in data set [4], in data set [2] and in data set [3] were 4.04, 5.40 and 4.31, respectively. The Ratio IC50 in data set [5] was 22.6.

With `Clc1ccc(C(Cn2ccnc2)OCc2ccc3ccccc3c2)c(Cl)c1` (stereo not drawn), the pIC50 in data set [4] was 5.37; in data set [2], 7.05; in data set [3], 4.65. The inhibition was 48.3% in data set [6] and “Dose-dependent effect” in data set [8]. Also, the CC50 at 48 h in data set [7] is 9.8 µM. In addition, the Ratio IC50 in data set [5] was found to be 47.8.

Take `Clc1ccc(C(Cn2ccnc2)OCc2nc3ccccc3o2)c(Cl)c1` (stereo not drawn): the values for the pIC50 in data set [4], in data set [2] and in data set [3] were 4.35, 4.75 and 3.87, respectively. Also, the Ratio IC50 in data set [5] came to 2.5.

Molecule `Clc1ccc(C(Cn2ccnc2)OCc2nc3ccccc3s2)cc1Cl` (stereo not drawn) showed an inhibition in data set [1] of 5%. The pIC50 in data set [2] is 6.00; in data set [3] it was 5.52. Moreover, the Ratio IC50 in data set [5] was above 50.

Molecule `Clc1cccc(C(Cn2ccnc2)OCc2nc3ccccc3s2)c1` (stereo not drawn) showed an inhibition in data set [1] of 19.9%. Also, the pIC50 in data set [2] is 5.22; in data set [3], 4.60.

Consider `Clc1ccc(C(Cn2ccnc2)OCc2cccnc2)c(Cl)c1` (stereo not drawn), for which the pIC50 in data set [4] was 4.92; in data set [2], 4.38; in data set [3] it was 4.02. In addition, the Ratio IC50 in data set [5] stood at 0.3.

`Clc1ccc(C(Cn2ccnc2)OCc2ccsc2)c(Cl)c1` (stereo not drawn): the pIC50 in data set [4] was 4.74; in data set [2] it was 4.50; in data set [3], 4.20. The Ratio IC50 in data set [5] turned out to be 0.6.
